Results: patent US4645840A, “Intermediates for preparing 1,2-dihydropyrido[3,4-b]-pyrazines” (Southern Research Institute, priority 1986, dated 1987)
Read-outs that look alike come from different tables or passages of the source.

How the values were obtained:
[1] = system: lymphocytic leukemia P388 cells; details: sensitive line of P388, 10^6 cell implant IP, 2 mg/kg, qd 1-9; cited from earlier work
[2] = system: Methotrexate-resistant line of P388 (tumor P7); details: methotrexate-resistant line of P388, 10^6 cell implant IP, 2 mg/kg, qd 1-9; cited from earlier work
[3] = system: lymphocytic leukemia P388 cells; assay: Activity against lymphocytic leukemia P388 (10^6 tumor cell implant, i.p.) in mice; format: in vivo; details: P388, 10^6 cells i.p.
Source text: (c) Lymphocytic leukemia P388. R. I. Geran, N. H. Greenbert, M. M.
MacDonald, A. M. Schumacker, and B. J. Abbott, Cancer Chemother. Rep., 3

[4] = system: lymphoid leukemia L1210 cells; assay: Mitotic index of cultured lymphoid leukemia L1210 cells; format: cell-based
[5] = system: lymphoid leukemia L1210 cells; assay: Inhibition of proliferation of cultured lymphoid leukemia L1210 cells; format: cell-based; details: Mus musculus
Description: The 1,2-dihydropyrido[3,4-b]pyrazines of this invention are powerful inhibitors of the proliferation of cultured lymphoid luekemia L1210 cells as shown in Table IV.
(a) Concentration of agent that inhibits proliferation of cultured
lymphoid leukemia L1210 cells to 50% control growth during 48 hours. G. P
Wheeler, B. J. Bowdon, J. A. Werline, D. J. Adamson and C. Temple, Jr.,

[6] = system: Vincristine-resistant line of P388; assay: Activity against vincristine-resistant line of P388 in mice; format: in vivo; details: for activity against P388 cells resistant to vincristine: in mice
Source text: (g) Vincristineresistant line of P388. L. J. Wilkoff and E. A. Dulmadge, […]

KB cell = details: cited from earlier work
several neoplasms = details: cited from earlier work
[7] = system: Methotrexate-resistant line of P388 (tumor P7); assay: Activity against methotrexate-resistant line of P388 in mice; format: in vivo; details: methotrexate-resistant P388, schedule day 1, 100 mg/kg
Description: (e) Methotrexateresistant line of P388 (designated tumor P7 by the Drug
Evaluation Branch, National Cancer Institute). In mice with 10^6 cell
implant (IP), methotrexate at a dose of 2 mg/kg on the qd 1-9 schedule
gave a 2log cell kill against the sensitive line of P388 and a 2log
increase in cells against the methotrexateresistant line of P388.

[8] = L1210, inhibits proliferation to 50% control growth during 48 hours (footnote a), read-out: ID50 (the source's name)

CN(Cc1cnc2nc(N)nc(N)c2n1)c1ccc(C(=O)N[C@@H](CCC(=O)O)C(=O)O)cc1 [methotrexate]
log cell kill [1]: 2 log | log increase in cells [2]: 2 log

CCOC(=O)Nc1cc2c(c(N)n1)N=C(CN(C)c1ccc(C(=O)OC)cc1)CN2 [R = 4-CH3 O2 CC6 H4 N(CH3)CH2 (R4 = H), reference compound]
% ILS ([3]; schedule days 1-9, 25 mg/kg): 30% | Mitotic Index 12 h ([4]; 0.1 μM): 0.44 | Mitotic Index 12 h ([4]; 0.3 μM): 0.61 | IC50 [5, 8]: 58 nM

CC[C@]1(O)C[C@H]2CN(CCc3c([nH]c4ccccc34)[C@@](C(=O)OC)(c3cc4c(cc3OC)N(C=O)[C@H]3[C@@](O)(C(=O)OC)[C@H](OC(C)=O)[C@]5(CC)C=CCN6CC[C@]43[C@@H]65)C2)C1 [Vincristine, reference compound]
IC50 ([5]; L1210, 48 h, read-out: ID50): 1 nM

CCOC(=O)Nc1cc2c(c(N)n1)N=C(CN(C)c1ccc(OC)cc1)CN2 [R = 4-CH3 OC6 H4 N(CH3)CH2 (R4 = H)]
activity against P388 cells resistant to vincristine [6]: active in mice against P388 cells that were resistant to vincristine | % ILS ([6]; vincristine-resistant P388, schedule day 1, 25 mg/kg): 150% | % ILS ([3]; schedule day 1, 25 mg/kg): 133% | % ILS ([3]; schedule day 1, 50 mg/kg): 80% | Mitotic Index 12 h ([4]; 0.03 μM): 0.64 | Mitotic Index 12 h ([4]; 0.3 μM): 0.49 | IC50 [5, 8]: 7.9 nM

CCOC(=O)Nc1cc2c(c(N)n1)N=C(CN(C)c1ccc(C(=O)OC)cc1)CN2 [drawing 5]
cytotoxicity in the KB cell culture screen (KB cell): showed cytotoxicity in the KB cell culture screen

CCOC(=O)Nc1cc2c(c(N)n1)N=C(CN(C)c1ccccc1)CN2 [NSC-181928]
activity against several neoplasms (several neoplasms): active against several neoplasms

CCOC(=O)Nc1cc2c(c(N)n1)N=C(CCc1ccccc1)CN2 [R = C6 H5 CH2 CH2 (R4 = H), Ethyl 5-Amino-1,2-dihydro-3-(2-phenylethyl)pyrido(3,4-b)pyrazine-7-carbamate]
% ILS ([3]; schedule day 1, 100 mg/kg): 29% | Mitotic Index 24 h ([4]; 0.3 μM): 0.33 | IC50 [5, 8]: 13 nM

CCOC(=O)Nc1cc2c(c(N)n1)N=C(CN(C)c1ccc(OC)cc1)C(C)N2 (centres unmarked) [R = 4-CH3 OC6 H4 N(CH3)CH2 (R4 = CH3), Ethyl 5-Amino-1,2-dihydro-3-[[N-(4-methoxyphenyl)-N-methylamino]methyl]-2-methylpyrido[3,4-b]pyrazine-7-carbamate]
% ILS ([3]; schedule days 1-5, 48 mg/kg): 53% | Mitotic Index 12 h ([4]; 0.3 μM): 0.66 | IC50 [5, 8]: 5.5 nM

CCOC(=O)Nc1cc2c(c(N)n1)N=C(CN(C)c1ccc(Cl)cc1)CN2 [R = 4-ClC6 H4 N(CH3)CH2 (R4 = H)]
% ILS ([3]; schedule day 1, 100 mg/kg): 65% | Mitotic Index 12 h ([4]; 0.03 μM): 0.71 | IC50 [5, 8]: 14.5 nM

CCOC(=O)Nc1cc2c(c(N)n1)N=C(CN(C)c1ccccc1)CN2 [R = C6 H5 N(CH3)CH2 (R4 = H), Ethyl 5-Amino-1,2-dihydro-3-[(N-methyl-N-phenyl)aminomethyl]pyrido[3,4-b]pyrazine-7-carbamate]
activity against P388 cells resistant to vincristine [6]: active in mice against P388 cells that were resistant to vincristine | % ILS ([6]; vincristine-resistant P388, schedule day 1, 67 mg/kg): 90% | % ILS ([3]; schedule day 1, 100 mg/kg): 114% | Mitotic Index 12 h ([4]; 0.03 μM): 0.77 | Mitotic Index 24 h ([4]; 0.3 μM): 0.80 | % ILS [7]: 66% | IC50 [5, 8]: 8.4 nM
